The target in one test is T1, Serine protease 1 (Bos taurus, UniProt P00760).
T1 sequence (P00760 whole entry): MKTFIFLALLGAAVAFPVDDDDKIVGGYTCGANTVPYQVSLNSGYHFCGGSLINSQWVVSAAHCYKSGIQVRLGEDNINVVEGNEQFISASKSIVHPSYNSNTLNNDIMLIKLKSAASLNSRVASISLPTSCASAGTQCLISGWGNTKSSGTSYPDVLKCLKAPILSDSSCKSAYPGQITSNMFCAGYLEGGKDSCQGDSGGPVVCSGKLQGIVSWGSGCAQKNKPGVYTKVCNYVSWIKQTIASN
Kind of test: In vitro Enzyme Inhibitory activity measured against Trypsin.

A further test has as its target Plasminogen (Homo sapiens, UniProt P00747). Kind of test: In vitro Enzyme Inhibitory activity measured against Plasmin.
The next test deals with Coagulation factor X (Bos taurus, UniProt P00743). Kind of test: In vitro Enzyme Inhibitory activity measured against Coagulation factor X.
Sequence of Coagulation factor X (P00743 41-180 limits assumed): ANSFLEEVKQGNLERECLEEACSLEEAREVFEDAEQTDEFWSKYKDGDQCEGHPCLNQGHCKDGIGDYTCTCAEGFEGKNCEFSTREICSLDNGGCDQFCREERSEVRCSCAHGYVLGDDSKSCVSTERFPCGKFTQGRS
Sequence of Coagulation factor X (P00743 234-492 limits assumed): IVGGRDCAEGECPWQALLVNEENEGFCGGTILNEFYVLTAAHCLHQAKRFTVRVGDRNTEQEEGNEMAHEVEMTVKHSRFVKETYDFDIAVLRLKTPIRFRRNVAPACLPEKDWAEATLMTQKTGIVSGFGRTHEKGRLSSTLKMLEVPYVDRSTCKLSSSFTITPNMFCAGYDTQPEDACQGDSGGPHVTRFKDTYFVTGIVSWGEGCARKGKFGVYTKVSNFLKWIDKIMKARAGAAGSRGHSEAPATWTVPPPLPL
Test [1] addresses Tissue-type plasminogen activator (Homo sapiens, UniProt P00750). Kind of test: In vitro Enzyme Inhibitory activity against t-PA(Tissue plasminogen activator).
Test [2] is described as follows: Ratio of IC50 towards Plasmin to thrombin.
Another test concerns the target Prothrombin (Bos taurus, UniProt P00735). Kind of test: In vitro Enzyme Inhibitory activity measured against Thrombin.
Test [3] can be described thus: Ratio of IC50 towards Tissue Plasminogen activator to thrombin.

Square brackets hold non-standard residues; d marks the D form. Peptide text beside a SMILES is read from it. * marks the point of attachment. Tic = O=C(O)[C@@H]1Cc2ccccc2CN1; dPhg = N[C@@H](C(=O)O)c1ccccc1; Boc = CC(C)(C)OC(=O)*

Sequence of Plasminogen (P00747 97-580 limits assumed): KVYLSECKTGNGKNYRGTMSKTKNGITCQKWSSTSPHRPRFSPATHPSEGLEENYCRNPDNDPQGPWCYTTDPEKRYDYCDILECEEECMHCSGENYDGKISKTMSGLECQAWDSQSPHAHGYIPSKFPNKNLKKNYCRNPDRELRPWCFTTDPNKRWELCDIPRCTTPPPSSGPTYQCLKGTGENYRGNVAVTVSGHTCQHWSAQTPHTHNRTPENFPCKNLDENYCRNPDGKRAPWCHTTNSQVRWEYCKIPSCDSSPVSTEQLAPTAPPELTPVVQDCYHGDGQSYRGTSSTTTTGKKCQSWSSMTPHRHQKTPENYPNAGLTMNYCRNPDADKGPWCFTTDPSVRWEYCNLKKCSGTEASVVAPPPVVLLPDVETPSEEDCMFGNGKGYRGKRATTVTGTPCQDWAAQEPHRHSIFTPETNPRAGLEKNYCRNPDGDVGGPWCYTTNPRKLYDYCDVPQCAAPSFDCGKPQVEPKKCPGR
Sequence of Plasminogen (P00747 581-810 limits assumed): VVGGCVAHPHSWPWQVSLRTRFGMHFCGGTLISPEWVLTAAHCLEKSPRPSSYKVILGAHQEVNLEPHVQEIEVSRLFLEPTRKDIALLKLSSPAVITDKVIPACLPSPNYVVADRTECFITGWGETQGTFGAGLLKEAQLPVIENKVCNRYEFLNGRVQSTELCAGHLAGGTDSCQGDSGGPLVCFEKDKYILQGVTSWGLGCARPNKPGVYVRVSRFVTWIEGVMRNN
Sequence of Tissue-type plasminogen activator (P00750 whole entry): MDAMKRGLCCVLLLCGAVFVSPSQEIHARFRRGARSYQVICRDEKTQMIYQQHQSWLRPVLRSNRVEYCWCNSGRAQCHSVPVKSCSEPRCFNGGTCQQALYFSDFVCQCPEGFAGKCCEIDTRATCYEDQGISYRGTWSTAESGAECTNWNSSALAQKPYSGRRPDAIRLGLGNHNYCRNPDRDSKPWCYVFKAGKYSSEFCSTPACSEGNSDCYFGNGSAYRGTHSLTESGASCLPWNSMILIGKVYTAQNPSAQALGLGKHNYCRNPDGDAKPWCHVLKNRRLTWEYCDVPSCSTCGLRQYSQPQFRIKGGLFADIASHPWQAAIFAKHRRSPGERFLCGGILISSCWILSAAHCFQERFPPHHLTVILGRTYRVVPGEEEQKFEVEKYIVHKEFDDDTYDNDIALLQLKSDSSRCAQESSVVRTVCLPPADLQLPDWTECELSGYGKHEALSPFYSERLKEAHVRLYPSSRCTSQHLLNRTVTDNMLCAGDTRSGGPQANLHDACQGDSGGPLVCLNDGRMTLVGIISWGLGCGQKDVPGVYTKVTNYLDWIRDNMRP

Regarding `CC[C@](NC(=O)C(F)(F)F)(C(=O)N1CC[C@H]1C(=O)N[C@H](C=O)CCCN=C(N)N)c1ccccc1`, the IC50 against Serine protease 1 came out at 0.0052 µM; against Plasminogen, 4.3 µM; on Coagulation factor X, 32 µM.
As for `CC(C)(C)OC(=O)N[C@H](Cc1ccccc1)C(=O)N1CC[C@H]1C(=O)N[C@H](C=O)CCCNC(=N)N`, the IC50 in test [1] amounted to 0.9 µM; on Serine protease 1, 0.0097 µM; at Plasminogen, 0.36 µM; on Coagulation factor X, 1.3 µM.
For `C[C@](NC(=O)C(F)(F)F)(C(=O)N1CC[C@H]1C(=O)N[C@H](C=O)CCCN=C(N)N)c1ccccc1`, the Selectivity is 510 in test [2] and 11000 in test [3]. Also, the IC50 in test [1] came to 130 µM; against Prothrombin, 0.012 µM; at Serine protease 1, 0.0096 µM; against Plasminogen, 6.1 µM; against Coagulation factor X, 98 µM.
For the compound `CC(C)(C)OC(=O)N[C@@H](Cc1ccccc1)C(=O)N1CCCC[C@H]1C(=O)N[C@H](C=O)CCCN=C(N)N`, the values for the Selectivity in test [2] and in test [3] were 5 and 30, respectively.
In the same order, the values of `CC(C)(C)OC(=O)NC(Cc1ccccc1)C(=O)N1CSCC1C(=O)N[C@H](C=O)CCCN=C(N)N` (stereo in doubt) [listing 1 of 3 here] are 4 and 260.
In the case of `CC(=O)N[C@@](C)(C(=O)N1CC[C@H]1C(=O)N[C@H](C=O)CCCNC(=N)N)c1ccccc1`, the IC50 turned out to be 250 µM in test [1]; 0.019 µM on Prothrombin; 0.011 µM on Serine protease 1; 7.5 µM against Plasminogen; 86 µM against Coagulation factor X.
Take `CC(C)(C)OC(=O)NC(Cc1ccccc1)C(=O)N1C(C(=O)N[C@H](C=O)CCCN=C(N)N)CCC1(C)C` (stereo in doubt) [listing 1 of 3 here]: the IC50 in test [1] was greater than 30000 µM; against Serine protease 1 it was 0.17 µM; at Plasminogen it was 11 µM; on Coagulation factor X, 18 µM.
For `CC(C)(C)OC(=O)N[C@@H](C(=O)N1CC[C@H]1C(=O)N[C@H](C=O)CCCN=C(N)N)c1ccccc1` the same measures were 6.6 µM, 0.011 µM, 0.15 µM and 0.27 µM.
Take `CC(C)(C)OC(=O)NC(Cc1ccccc1)C(=O)N1CC[C@H]1C(=O)N[C@@H](CCCN=C(N)N)C(=O)O` (stereo in doubt): the Selectivity in test [2] worked out at 20; in test [3], 50. Besides, the IC50 against Prothrombin was 0.018 µM.
As to `N=C(N)NCCC[C@@H](C=O)NC(=O)[C@@H]1CCCN1C(=O)[C@@H]1NCC[C@@H]2CCCC[C@@H]21`, the Selectivity in test [2] was found to be 40; in test [3] it was 1800. In addition, the IC50 is 34 µM in test [1]; 0.019 µM on Prothrombin; 0.053 µM at Serine protease 1; 0.71 µM against Plasminogen; 0.55 µM against Coagulation factor X.
For `CC(C)(C)OC(=O)N[C@@](C)(C(=O)N1CC[C@H]1C(=O)N[C@H](C=O)CCCN=C(N)N)c1ccccc1`, the Selectivity came out at 180 in test [2] and 5500 in test [3]. Moreover, the IC50 in test [1] stood at 120 µM; on Prothrombin it was 0.022 µM; at Serine protease 1, 0.015 µM; against Plasminogen it was 3.9 µM; at Coagulation factor X it was 0.89 µM.
The compound `CC(C)(C)OC(=O)NC(Cc1ccccc1)C(=O)N1CSCC1C(=O)N[C@H](C=O)CCCN=C(N)N` (stereo in doubt) [listing 2 of 3 here] returned a concentration for half-maximal inhibition (IC50) against Prothrombin of 0.088 µM.
On to `N=C(N)NCCC[C@@H](C=O)NC(=O)[C@@H]1CCCN1C(=O)[C@@H]1C[C@@H]2CCCC[C@@H]2CN1`, for which the Selectivity in test [2] stood at 5; in test [3] it was 650. For the same compound, the IC50 in test [1] was 30 µM; against Prothrombin, 0.046 µM; on Serine protease 1 it was 0.0091 µM; against Plasminogen, 0.23 µM; against Coagulation factor X, 3.3 µM.
With `CC(C)(C)OC(=O)NC(Cc1ccccc1)C(=O)N1CSCC1C(=O)N[C@H](C=O)CCCN=C(N)N` (stereo in doubt) [listing 3 of 3 here], the IC50 in test [1] came out at 23 µM; at Serine protease 1 it was 0.0088 µM; against Plasminogen, 0.34 µM; against Coagulation factor X, 0.86 µM.
In the case of `CC(C)(C)OC(=O)N[C@@H](Cc1ccccc1)C(=O)N1CCCC[C@H]1C(=O)N[C@H](C=O)CCCNC(=N)N`, the IC50 in test [1] was 48 µM; on Prothrombin, 1.7 µM; on Serine protease 1, 0.72 µM; against Plasminogen it was 8.1 µM; against Coagulation factor X, 32 µM.
As for `N=C(N)NCCC[C@@H](C=O)NC(=O)[C@@H]1CCCN1C(=O)[C@@H]1Cc2ccccc2CN1` (H-[Tic]-Pro-Arg-aldehyde), the IC50 in test [1] was found to be 430 µM; on Prothrombin, 0.019 µM; against Serine protease 1, 0.023 µM; at Coagulation factor X, 0.64 µM.
For the compound `CN[C@H](Cc1ccccc1)C(=O)N1CCC[C@H]1C(=O)N[C@H](C=O)CCCN=C(N)N`, the IC50 in test [1] stood at 21 µM; against Prothrombin, 0.0089 µM; against Serine protease 1, 0.013 µM; against Plasminogen, 0.67 µM; at Coagulation factor X, 7.6 µM.
As for `CC(C)(C)OC(=O)NC(Cc1ccccc1)C(=O)N1C(C(=O)N[C@H](C=O)CCCN=C(N)N)CCC1(C)C` (stereo in doubt) [listing 2 of 3 here], the Selectivity was 38 in test [2] and greater than 50000 in test [3].
In the same order, the values of `CN[C@H](Cc1ccccc1)C(=O)N1CCC[C@H]1C(=O)N[C@H](C=O)CCCNC(=N)N` are 80 and 2400.
Consider `C[C@](NC(=O)C(F)(F)F)(C(=O)N1CCC[C@H]1C(=O)N[C@H](C=O)CCCN=C(N)N)c1ccccc1`, for which the values for the Selectivity in test [2] and in test [3] were 700 and greater than 50000, respectively. Also, the IC50 in test [1] was greater than 30000 µM; against Prothrombin it was 0.064 µM; against Serine protease 1, 0.18 µM; against Plasminogen, 45 µM; against Coagulation factor X, 190 µM.
As for `CC(C)(C)OC(=O)NC(Cc1ccccc1)C(=O)N1C(C(=O)N[C@H](C=O)CCCN=C(N)N)CCC1(C)C` (stereo in doubt) [listing 3 of 3 here], the IC50 against Prothrombin was 0.29 µM.
As to `CC(C)(C)OC(=O)N[C@H](Cc1ccccc1)C(=O)N1CCC[C@H]1C(=O)N[C@H](C=O)CCCN=C(N)N`, the Selectivity was 4 in test [2] and 20 in test [3]. In addition, the IC50 is 0.95 µM in test [1], 0.045 µM on Prothrombin, 0.014 µM on Serine protease 1 and 1.6 µM against Coagulation factor X.
Take `CC(=O)N[C@@](C)(C(=O)N1CC[C@H]1C(=O)N[C@H](C=O)CCCN=C(N)N)c1ccccc1`: the results for the Selectivity in test [2] and in test [3] were 400 and 13000, respectively.
Take `CN[C@@H](Cc1ccccc1)C(=O)N1CCC[C@H]1C(=O)N[C@](C)(C=O)CCCN=C(N)N`: the Selectivity is 850 in test [2] and greater than 30000 in test [3]. The IC50 in test [1] was greater than 30000 µM; against Prothrombin it was 1 µM; on Serine protease 1, 240 µM; against Plasminogen, 850 µM; against Coagulation factor X it was 1800 µM.
Turning to `CC(C)(C)OC(=O)N[C@@H](C(=O)N1CCC[C@H]1C(=O)N[C@H](C=O)CCCN=C(N)N)c1ccccc1` (Boc-[dPhg]-Pro-Arg-aldehyde), the Selectivity was 6 in test [2] and 540 in test [3]. For the same compound, the IC50 in test [1] worked out at 8.7 µM; on Prothrombin it was 0.016 µM; at Serine protease 1 it was 0.0098 µM; on Coagulation factor X, 0.26 µM.

As a reminder, the IC50 is the concentration that inhibits the measured activity by half. A lower IC50 goes with greater potency.
